Measurements published in ChEMBL document CHEMBL1201862, “PubChem BioAssay data set” (2004).
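A five-concentration, 48-hour dose response in 96-well plates underlies each endpoint, interpolated linearly between surrounding concentrations. The concentration for 50% growth inhibition is given as GI50.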 Activity calls are given as the source filed them. Rule as the data show it: active = GI50 up to about 1.1 µM and inactive = higher.

Key:
Experiment in all cases: NCI-60 cell line screen, 48 h
[1] = tested on: DMS-273
[2] = tested on: M19-MEL
[3] = tested on: LXFL 529
[4] = tested on: KM-20L2
[5] = tested on: HOP-18
[6] = tested on: RXF 631
[7] = tested on: XF498
[8] = tested on: SNB-78
[9] = tested on: DLD-1

Structure (SMILES) | GI50 [1] | GI50 [2] | GI50 [3] | GI50 [4] | GI50 [5] | GI50 [6] | GI50 [7] | GI50 [8] | GI50 [9]
Nc1ncnc2c(C3OC(CO)C(O)C3O)c[nH]c12 (configuration not stated) | 0.01 µM (active) | 0.0139 µM (active) | 0.00482 µM (active) | 0.00276 µM (active) | 0.00809 µM (active) | 0.00776 µM (active) | 0.00881 µM (active) | 0.01 µM (active) | 0.000728 µM (active)
COc1cc(-c2cc(CCC(=O)Nc3ccccc3[N+](=O)[O-])n(-c3ccc([N+](=O)[O-])cc3[N+](=O)[O-])n2)ccc1O | > 10 µM (inactive) | > 10 µM (inactive) | 44.7 µM (inactive) | > 10 µM (inactive) | > 10 µM (inactive) | > 10 µM (inactive) | > 100 µM (inactive) | > 10 µM (inactive) | > 10 µM (inactive)
Clc1ccc(SC(/C=C/NNC2=NN=C(c3ccccc3)C(c3ccccc3)N2)c2ccccc2)cc1 (configuration not stated) | 26.2 µM (inactive) | 36.5 µM (inactive) | – | 19.9 µM (inactive) | – | 25 µM (inactive) | 18.7 µM (inactive) | 32.7 µM (inactive) | 23.4 µM (inactive)
COCCOCOc1ccc(OCOCCOC)c2c1C(=O)c1ccccc1C2=O | 49.1 µM (inactive) | 16.7 µM (inactive) | – | 32 µM (inactive) | 77.1 µM (inactive) | – | > 100 µM (inactive) | > 63.1 µM (inactive) | 26.3 µM (inactive)
Cc1cc2c(cc1C)[n+]([O-])c(C(=O)/C=C/c1ccccc1[N+](=O)[O-])c(C)[n+]2[O-] | 34.1 µM (inactive) | > 80 µM (inactive) | > 91.6 µM (inactive) | > 100 µM (inactive) | 38.5 µM (inactive) | – | 22.3 µM (inactive) | 27 µM (inactive) | 77.6 µM (inactive)
COC(=O)c1c2c(cc3c1CC1(Cc4cc5c(c(C(C)=O)c4C1)CCC5)C3)CCC2 (configuration not stated) | 29.9 µM (inactive) | > 100 µM (inactive) | 64.3 µM (inactive) | – | > 100 µM (inactive) | – | 31.3 µM (inactive) | > 100 µM (inactive) | > 100 µM (inactive)
O=C1CC2C=CC1C2CO (configuration not stated) | > 100 µM (inactive) | > 100 µM (inactive) | > 100 µM (inactive) | > 100 µM (inactive) | > 100 µM (inactive) | – | – | > 100 µM (inactive) | > 100 µM (inactive)
COc1ccc2c(c1)C(=O)Cc1ccccc1CC2 | > 100 µM (inactive) | > 100 µM (inactive) | > 100 µM (inactive) | > 100 µM (inactive) | > 100 µM (inactive) | – | > 100 µM (inactive) | > 100 µM (inactive) | > 100 µM (inactive)
COC(=O)CCC(=O)N1C/C(=C\c2ccccc2)C(=O)/C(=C/c2ccccc2)C1 | 0.708 µM (active) | 2.39 µM (inactive) | 2.09 µM (inactive) | 2.24 µM (inactive) | 2.34 µM (inactive) | – | 5.87 µM (inactive) | 2.77 µM (inactive) | 2.04 µM (inactive)
Cn1nc(-c2ccccc2NC(=O)C(F)(F)F)c(=O)n(C)c1=S | 24.4 µM (inactive) | 18.9 µM (inactive) | 21.7 µM (inactive) | – | – | – | 18.9 µM (inactive) | – | > 100 µM (inactive)
COc1ccc(Cl)cc1NC(=O)c1cccc([N+](=O)[O-])c1O | – | 9.79 µM (inactive) | 8.43 µM (inactive) | 15 µM (inactive) | 2.51 µM (inactive) | – | – | 19.4 µM (inactive) | 8.95 µM (inactive)
OC1C2CCC1C1C3C=CC(C3)C21 (configuration not stated) | 94.4 µM (inactive) | > 100 µM (inactive) | 96.4 µM (inactive) | 77.3 µM (inactive) | > 100 µM (inactive) | – | > 100 µM (inactive) | > 100 µM (inactive) | > 100 µM (inactive)
Cc1ccccc1NC(=O)C(=O)CC(=O)c1c(C)[n+]([O-])c2ccccc2[n+]1[O-] | > 100 µM (inactive) | > 100 µM (inactive) | > 100 µM (inactive) | > 100 µM (inactive) | > 100 µM (inactive) | – | – | > 100 µM (inactive) | > 100 µM (inactive)
CC(=O)Nc1ccc(/C=C(\NC(=O)c2ccccc2)c2nc3ccc4c(c3[nH]2)C(=O)c2ccccc2C4=O)cc1 | 32.7 µM (inactive) | 78.3 µM (inactive) | 28.8 µM (inactive) | 46.5 µM (inactive) | 11 µM (inactive) | – | 84.1 µM (inactive) | 58.9 µM (inactive) | 13.8 µM (inactive)
COc1cc2c(cc1O)[C@H](C)C(c1ccc(OC)c(OC)c1)O2 (some centres not stated) | 3.84 µM (inactive) | 4.18 µM (inactive) | 9.35 µM (inactive) | 18.8 µM (inactive) | 4.36 µM (inactive) | – | 10.1 µM (inactive) | 17.3 µM (inactive) | 8.11 µM (inactive)
